{
  "source": "patent US12473305B2",
  "about": "“Pyrazole boronic acid compound, pharmaceutical composition containing same, and uses thereof” (BEIJING SONGRUN PHARMACEUTICAL TECHNOLOGY CO., LTD., priority 2020, dated 2025)",
  "key": {"[1]": {"test_system": "human liver cancer Bel7404", "assay": "Antitumor activity in vivo, Bel7404 transplanted in nude mice", "design": "species or system male BALB/c athymic nude mice", "conditions": "for RTV (d22): iv × 5; for Animal weight (g) (After tumor removal) / Inhibition rate %: iv × 5, d22", "experimental": "In the test, the Bel7404 models of human liver cancer transplanted into 6-week-old male BALB/c athymic nude mice (purchased from Shanghai Slac Laboratory Animal Co., Ltd.) with body weight of 18-20 g were used to study the anti-tumor effect of compound 30. The dose of compound 30 was 50 mg/kg (30H group), 25 mg/kg (30 M group) and 12.5 mg/kg (30 L group), respectively, and was injected intravenously twice a week for 5 times in total; at the same time, 5-FU was used as the control drug, which was injected intraperitoneally twice a week for 7 times in total (5 mice/group for the compound 30 administration group, 5 mice in 5 FU administration group; 8 mice were used as the mock group). The long diameter a (mm) and the vertical short diameter b (mm) of the tumor were measured twice a week with a digital electronic caliper. The tumor volume calculation formula was TV=ab^2/2; and the relative tumor volume calculation formula was RTV=Vt/Vo, wherein Vo was the tumor volume measured on the first day of administration (d1), and Vt was the tumor volume at each measurement. On the 22nd day of administration (d22), the animals were sacrificed and weighed. The tumor mass was dissected and weighed. The tumor inhibition rate (tumor inhibitory rate, %) was calculated according to the following formula: […]"}, "HepG2": {"test_system": "HepG2", "assay": "MTT antitumor spectrum, HepG2", "type": "cell-based", "conditions": "Homo sapiens, 72 h", "experimental": "(§1) The activity of compound 30 was evaluated by MTT method against seven tumor cell models, A549, A375, HCT116, MDA-MB-231, HepG2, PC3 and MCF-7. All cells used in the study were prepared at a concentration of 3.5×10^3 cells/mL, and each […] cell suspension was inoculated on a 96-well microtiter plate for 24 hours (37° C., 5% CO2). Then different concentrations of compound 30 were added, incubated for 72 hours; and for the control group, equivalent concentrations of DMSO (final concentration 0.5%) were added. The number of viable cells was measured by MTT (3-(4,5-dimethylthiazol-2-yl)-diphenyl tetrazolium bromide) method, and the OD value at 492/620 nm was recorded. The IC50 value was calculated by Prism-Graphpad software based on the results of triplicate experiments."}, "PC3": {"test_system": "PC3", "assay": "MTT antitumor spectrum, PC3", "type": "cell-based", "conditions": "Homo sapiens, PC-3, 72 h", "experimental": "as §1"}, "[2]": {"target": "T1, 20S proteasome β1 subunit (Homo sapiens, UniProt P28072+Q99436)", "T1 construct": "endogenous in cells; host or cells: K562", "assay": "Proteasome-Glo Cell-Based assay in K562 cells, β1 subunit", "conditions": "2 h incubation", "experimental": "Proteasome-Glo™ Cell-Based assay kit (Promega, USA) was used to determine the activity of the target compound against the 20S proteasome. Human chronic myeloid leukemia cell line (K562, 6000 cells/well) was inoculated into the 384 well plate in 20 μL/well. The cells were then equilibrated at 37° C., 5% CO2 for 2 hours. Each 384 well plate was set with the mock group and treatment group, and each well of the treatment group was added with 5 μL of the compound solution with the final concentration of 40 μM, 13.3 μM, 4.44 μM, 1.48 μM, 0.49 μM, 0.16 μM, 0.055 μM, 0.0183 μM, […], 0.0061 μM. The cells was incubated with the drugs for 2 hours at 37° C., 5% CO2 before adding 25 μL of corresponding Proteasome-Glo™ Cell-Based reagent per well. The relative luminescence unit (RLU) was measured by using Multimode Microplate Reader Varioskan Flash (Thermo Scientific, USA) after 15 min and compared with the RLU of the control group. SigmaPlot 10.0 software was used to calculate IC50 value."}, "[3]": {"test_system": "non-small cell lung cancer cell line A549", "assay": "CellTiter-Glo tumor cell proliferation, A549", "type": "cell-based, human", "conditions": "Homo sapiens, A549; CellTiter-Glo, 72 h", "how_it_was_run": "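Cells seeded at 2×10^4/mL, grown 24 h at 37° C, 5% CO2, then treated in triplicate with medium-diluted compound for 72 h. CellTiter-Glo luminescence read after 20 min at 37° C; inhibition versus untreated control RLU, IC50 calculated.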"}, "[4]": {"assay": "Maximum tolerated dose in mice", "type": "in vivo", "conditions": "for body weight (M ± S.E.): in g (unit assumed)", "experimental": "Healthy non-tumor bearing female NOD/SCID mice (purchased from Sipeifu Biotechnology Co., Ltd.) were selected for the Maximum Tolerated Dose (MTD) test. Compound 39 was administered to NOD/SCID mice directly through a single tail vein injection, and the vehicle (0.3 mL DMSO, 0.27 mL Tween-80, 2.43 mL normal saline) was used as the control group. According to the dose of compound 39, the administration group was divided into three groups: low-dose group (10 mg/kg), medium-dose group (20 mg/kg), and high-dose group (30 mg/kg), with seven mice in each group."}},
  "data": [
    {"smiles": "CC(C)C[C@H](NC(=O)Cn1nc(-c2cccc(OCCN3CCOCC3)c2)cc1-c1ccccc1)B(O)O.Cl", "note": "[Compound 30, (R)-(3-methyl-1-(2-(3-(3-(2-morpholinoethoxy)phenyl)-5-phenyl-1H-pyrazol-1-yl)-acetamido)butyl)boronic acid hydrochloride]", "values": [
      {"measurement": "RTV (d22)", "setting": "[1]; 12.5 mg/kg", "value": "4.52 ± 1.08"},
      {"measurement": "Animal weight (g) (After tumor removal)", "setting": "[1]; 12.5 mg/kg", "value": "23.11 ± 0.65", "unit": "g"},
      {"measurement": "Inhibition rate %", "setting": "[1]; 12.5 mg/kg", "value": 24.89, "unit": "%"},
      {"measurement": "RTV (d22)", "setting": "[1]; 25 mg/kg", "value": "3.82 ± 0.67"},
      {"measurement": "Animal weight (g) (After tumor removal)", "setting": "[1]; 25 mg/kg", "value": "21.91 ± 0.56", "unit": "g"},
      {"measurement": "Inhibition rate %", "setting": "[1]; 25 mg/kg", "value": 36.55, "unit": "%"},
      {"measurement": "RTV (d22)", "setting": "[1]; 50 mg/kg", "value": "2.33 ± 0.59"},
      {"measurement": "Animal weight (g) (After tumor removal)", "setting": "[1]; 50 mg/kg", "value": "19.95 ± 0.45", "unit": "g"},
      {"measurement": "Inhibition rate %", "setting": "[1]; 50 mg/kg", "value": 61.29, "unit": "%"},
      {"measurement": "IC50", "setting": "HepG2", "value": 1080, "unit": "nM"},
      {"measurement": "IC50", "setting": "PC3", "value": 820, "unit": "nM"},
      {"measurement": "IC50", "setting": "[2]", "value": 2040, "unit": "nM"},
      {"measurement": "IC50", "setting": "[3]", "value": 3050, "unit": "nM"}
    ]},
    {"smiles": "CC(C)C[C@H](NC(=O)Cn1nc(-c2cccc(OCCN3CCN(c4ccccc4)CC3)c2)cc1-c1ccccc1)B(O)O.Cl", "note": "[Compound 39, (R)-(3-methyl-1-(2-(5-phenyl-3-(3-(2-(4-phenylpiperazin-1-yl)ethoxy)phenyl)-1H-pyrazol-1-yl)acetamido)butyl)boronic acid hydrochloride]", "values": [
      {"measurement": "body weight (M ± S.E.)", "setting": "[4]; High-dose 30 mg/kg single tail vein injection, Day 0 (day before administration)", "value": "24.2 ± 0.5"},
      {"measurement": "body weight (M ± S.E.)", "setting": "[4]; High-dose 30 mg/kg single tail vein injection, Day 1", "value": "24.0 ± 0.5"},
      {"measurement": "body weight (M ± S.E.)", "setting": "[4]; High-dose 30 mg/kg single tail vein injection, Day 2", "value": "22.4 ± 0.6"},
      {"measurement": "body weight (M ± S.E.)", "setting": "[4]; High-dose 30 mg/kg single tail vein injection, Day 3", "value": "22.5 ± 0.6"},
      {"measurement": "body weight (M ± S.E.)", "setting": "[4]; High-dose 30 mg/kg single tail vein injection, Day 4", "value": "22.7 ± 0.7"},
      {"measurement": "body weight (M ± S.E.)", "setting": "[4]; High-dose 30 mg/kg single tail vein injection, Day 5", "value": "22.9 ± 0.6"},
      {"measurement": "body weight (M ± S.E.)", "setting": "[4]; High-dose 30 mg/kg single tail vein injection, Day 6", "value": "22.5 ± 0.6"},
      {"measurement": "body weight (M ± S.E.)", "setting": "[4]; High-dose 30 mg/kg single tail vein injection, Day 7", "value": "23.1 ± 0.4"},
      {"measurement": "body weight (M ± S.E.)", "setting": "[4]; Low-dose 10 mg/kg single tail vein injection, Day 0 (day before administration)", "value": "24.2 ± 0.8"},
      {"measurement": "body weight (M ± S.E.)", "setting": "[4]; Low-dose 10 mg/kg single tail vein injection, Day 1", "value": "24.5 ± 0.8"},
      {"measurement": "body weight (M ± S.E.)", "setting": "[4]; Low-dose 10 mg/kg single tail vein injection, Day 2", "value": "23.3 ± 1.1"},
      {"measurement": "body weight (M ± S.E.)", "setting": "[4]; Low-dose 10 mg/kg single tail vein injection, Day 3", "value": "23.4 ± 1.0"},
      {"measurement": "body weight (M ± S.E.)", "setting": "[4]; Low-dose 10 mg/kg single tail vein injection, Day 4", "value": "23.7 ± 1.1"},
      {"measurement": "body weight (M ± S.E.)", "setting": "[4]; Low-dose 10 mg/kg single tail vein injection, Day 5", "value": "24.1 ± 1.0"},
      {"measurement": "body weight (M ± S.E.)", "setting": "[4]; Low-dose 10 mg/kg single tail vein injection, Day 6", "value": "24.4 ± 0.8"},
      {"measurement": "body weight (M ± S.E.)", "setting": "[4]; Low-dose 10 mg/kg single tail vein injection, Day 7", "value": "24.7 ± 0.7"},
      {"measurement": "body weight (M ± S.E.)", "setting": "[4]; Medium-dose 20 mg/kg single tail vein injection, Day 0 (day before administration)", "value": "24.7 ± 0.2"},
      {"measurement": "body weight (M ± S.E.)", "setting": "[4]; Medium-dose 20 mg/kg single tail vein injection, Day 1", "value": "24.1 ± 0.5"},
      {"measurement": "body weight (M ± S.E.)", "setting": "[4]; Medium-dose 20 mg/kg single tail vein injection, Day 2", "value": "22.8 ± 0.4"},
      {"measurement": "body weight (M ± S.E.)", "setting": "[4]; Medium-dose 20 mg/kg single tail vein injection, Day 3", "value": "22.7 ± 0.4"},
      {"measurement": "body weight (M ± S.E.)", "setting": "[4]; Medium-dose 20 mg/kg single tail vein injection, Day 4", "value": "22.8 ± 0.5"},
      {"measurement": "body weight (M ± S.E.)", "setting": "[4]; Medium-dose 20 mg/kg single tail vein injection, Day 5", "value": "23.3 ± 0.6"},
      {"measurement": "body weight (M ± S.E.)", "setting": "[4]; Medium-dose 20 mg/kg single tail vein injection, Day 6", "value": "23.7 ± 0.7"},
      {"measurement": "body weight (M ± S.E.)", "setting": "[4]; Medium-dose 20 mg/kg single tail vein injection, Day 7", "value": "24.0 ± 0.7"},
      {"measurement": "average body weight change of mice", "setting": "[4]; doses of 30 mg/kg or less, single tail vein injection", "value": "not more than 5%"},
      {"measurement": "MTD at 7 days", "setting": "[4]; female, NOD/SCID, mouse, in vivo, single tail vein injection, 7 days observation, read-out: dose safe to be administered (maximum tolerated dose test)", "value": "≤ 30", "unit": "mg/kg"}
    ]}
  ]
}
